The results in this text go back to patent publication US20210040118A1, “IMMUNOMODULATORS, COMPOSITIONS AND METHODS THEREOF” (BETTA PHARMACEUTICALS CO., LTD, priority 2018, published 2021).

Molecules are shown by their SMILES. Where only a bound is given, the exact number is not on record here.

In one test the target is T1, PD-1/PD-L1 (Homo sapiens, UniProt Q9NZQ7).
T1 construct: Recombinant human PD-L1 protein (19-238) with a His-tag at the C-terminus; purchased AcroBiosystems PD1-H5229 (PD-L1); PD1-H5257 (PD-1)
T1 sequence (Q9NZQ7 19-238): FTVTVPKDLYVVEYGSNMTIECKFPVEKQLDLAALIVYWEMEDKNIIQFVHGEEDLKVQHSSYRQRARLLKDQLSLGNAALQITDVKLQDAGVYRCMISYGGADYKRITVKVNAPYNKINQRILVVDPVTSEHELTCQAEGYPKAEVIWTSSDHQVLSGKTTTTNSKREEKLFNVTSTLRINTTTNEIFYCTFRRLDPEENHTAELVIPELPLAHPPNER
As to the kind of experiment: PD-1/PD-L1 homogenous time-resolved fluorescence (HTRF) binding assay. To be noted: recombinant human PD-L1 (19-238) His-tag / human PD-1 (25-167) Fc tag, class symbols. The method in brief: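 Inhibitors were preincubated 40 min at 25°C with 10 nM His-tagged human PD-L1 (19-238) and 3 nM Fc-tagged human PD-1 (25-167) in PBS pH 7.4 containing Tween-20, BSA and 1% DMSO. After 60 min with europium anti-human IgG and anti-His-APC, 665/620 nm signal ratio gave IC50 via percent-control fit.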
One may read the IC50 as the concentration at which inhibition is half-maximal. Turning to `CC(=O)N1CCc2c(nc(C(=O)Nc3cccc(-c4cccc(NC(=O)c5ccc6c(n5)CCNC6)c4C)c3C)n2C)C1` [Example 183, N-(3′-(5-acetyl-1-methyl-4,5,6,7-tetrahydro-1H-imidazo[4,5-c]pyridine-2-carboxamido)-2,2′-dimethyl-[1,1′-biphenyl]-3-yl)-5,6,7,8-tetrahydro-1,6-naphthyridine-2-carboxamide], the IC50 is under 25 nM.

For the molecule `O=C(Nc1cccc(-c2cccc(NC(=O)c3nc4c(s3)CN(C3COC3)CC4)c2Cl)c1Cl)c1nc2c(s1)CN(C1COC1)CC2` [Example 92, N,N′-(2,2′-dichloro-[1,1′-biphenyl]-3,3′-diyl)bis(5-(oxetan-3-yl)-4,5,6,7-tetrahydrothiazolo[5,4-c]pyridine-2-carboxamide)], the IC50 is under 25 nM.

`Cc1c(NC(=O)c2ccc3c(n2)CCN(C)C3)cccc1-c1cccc(NC(=O)c2ccc3c(n2)CCN(C)C3)c1C` [Example 175, N,N′-(2,2′-dimethyl-[1,1′-biphenyl]-3,3′-diyl)bis(6-methyl-5,6,7,8-tetrahydro-1,6-naphthyridine-2-carboxamide)]: the concentration for half-maximal inhibition (IC50) is under 25 nM.

Regarding `COC(=O)N[C@H](C(=O)N1CCc2nc(C(=O)N3CCc4c(-c5cccc6c5CCN6C(=O)c5ccc6c(n5)CCN(C(=O)[C@@H](NC(=O)OC)C(C)C)C6)cccc43)ccc2C1)C(C)C` [Example 168, dimethyl ((2S,2'S)-(([4,4′-biindoline]-1,1′-dicarbonyl)bis(7,8-dihydro-1,6-naphthyridine-2,6(5H)-diyl))bis(3-methyl-1-oxobutane-1,2-diyl))dicarbamate], the IC50 is under 25 nM.

Turning to `Cc1c(Nc2nccc3cc(CNC(C)C(=O)O)cnc23)cccc1-c1cccc(Nc2nccc3cc(CNC(C)C(=O)O)cnc23)c1C` (stereo not drawn) [Example 140, 2,2′-(((((2,2′-dimethyl-[1,1′-biphenyl]-3,3′-diyl)bis(azanediyl))bis(1,7-naphthyridine-8,3-diyl))bis(methylene))bis(azanediyl))dipropionic acid], the IC50 was under 25 nM.

For `O=C(c1nc2c(s1)CN(Cc1nn[nH]n1)CC2)N1CCc2c(-c3cccc4c3CCN4C(=O)c3nc4c(s3)CN(Cc3nn[nH]n3)CC4)cccc21` [Example 125, [4,4′-biindoline]-1,1′-diylbis((5-((2H-tetrazol-5-yl)methyl)-4,5,6,7-tetrahydrothiazolo[5,4-c]pyridin-2-yl)methanone)], the IC50 is under 25 nM.

Consider `Cc1c(NC(=O)c2ccc3c(n2)CCN(CC(=O)OC(C)(C)C)C3)cccc1-c1cccc(NC(=O)c2ccc3c(n2)CCN(CC(=O)OC(C)(C)C)C3)c1C` [Example 172, di-tert-butyl 2,2′-((((2,2′-dimethyl-[1,1′-biphenyl]-3,3′-diyl)bis(azanediyl))bis(carbonyl))bis(7,8-dihydro-1,6-naphthyridine-2,6(5H)-diyl))diacetate], for which the half-inhibitory concentration (IC50) is 100 to 200 nM.

With `Cc1c(Nc2nccc3cc(CNC(C(=O)O)C(C)C)cnc23)cccc1-c1cccc(Nc2nccc3cc(CNC(C(=O)O)C(C)C)cnc23)c1C` (stereo not drawn) [Example 142, 2,2′-(((((2,2′-dimethyl-[1,1′-biphenyl]-3,3′-diyl)bis(azanediyl))bis(1,7-naphthyridine-8,3-diyl))bis(methylene))bis(azanediyl))bis(3-methylbutanoic acid)], the IC50 is under 25 nM.

For `Cc1c(Nc2nccc3cc(CNCC(=O)O)cnc23)cccc1-c1cccc(Nc2nccc3cc(CNCC(=O)N(C)C)cnc23)c1C` [Example 148, ((8-((3′-((3-(((2-(dimethylamino)-2-oxoethyl)amino)methyl)-1,7-naphthyridin-8-yl)amino)-2,2′-dimethyl-[1,1′-biphenyl]-3-yl)amino)-1,7-naphthyridin-3-yl)methyl)glycine], the half-maximal inhibitory concentration (IC50) was under 25 nM.

As to `O=C(c1nc2c(s1)CN(CCCB(O)O)CC2)N1CCc2c(-c3cccc4c3CCN4C(=O)c3nc4c(s3)CN(CCCB(O)O)CC4)cccc21` [Example 121, ((([4,4′-biindoline]-1,1′-dicarbonyl)bis(6,7-dihydrothiazolo[5,4-c]pyridine-2,5(4H)-diyl))bis(propane-3,1-diyl))diboronic acid], the IC50 is under 25 nM.

Consider `CN(CCN1CCc2nc(C(=O)N3CCc4c(-c5cccc6c5CCN6C(=O)c5nc6c(s5)CN(CCN(C)S(C)(=O)=O)CC6)cccc43)sc2C1)S(C)(=O)=O` [Example 118, N,N′-((([4,4′-biindoline]-1,1′-dicarbonyl)bis(6,7-dihydrothiazolo[5,4-c]pyridine-2,5(4H)-diyl))bis(ethane-2,1-diyl))bis(N-methylmethanesulfonamide)], for which the IC50 is under 25 nM.

Regarding `CNC(=O)CN1CCc2nc(C(=O)N3CCc4c(-c5cccc6c5CCN6C(=O)c5nc6c(s5)CN(CC(=O)NC)CC6)cccc43)sc2C1` [Example 105, 2,2′-(([4,4′-biindoline]-1,1′-dicarbonyl)bis(6,7-dihydrothiazolo[5,4-c]pyridine-2,5(4H)-diyl))bis(N-methylacetamide)], the IC50 is under 25 nM.

As to `O=C(Nc1cccc(-c2cccc(NC(=O)c3nc4c(s3)CNCC4)c2Cl)c1Cl)c1ncc(CNCCO)s1` [Example 97, N-(2,2′-dichloro-3′-(5-(((2-hydroxyethyl)amino)methyl)thiazole-2-carboxamido)-[1,1′-biphenyl]-3-yl)-4,5,6,7-tetrahydrothiazolo[5,4-c]pyridine-2-carboxamide], the IC50 was under 25 nM.

With `Cc1c(NC(=O)c2nc3c(s2)CN(CCCN2CCOCC2)CC3)cccc1-c1cccc(NC(=O)c2nc3c(s2)CN(CCCN2CCOCC2)CC3)c1C` [Example 81, N,N′-(2,2′-dimethyl-[1,1′-biphenyl]-3,3′-diyl)bis(5-(3-morpholinopropyl)-4,5,6,7-tetrahydrothiazolo[5,4-c]pyridine-2-carboxamide)], the IC50 is under 25 nM.

Turning to `COP(=O)(CCN1CCc2nc(C(=O)N3CCc4c(-c5cccc6c5CCN6C(=O)c5nc6c(s5)CN(CCP(=O)(OC)OC)CC6)cccc43)sc2C1)OC` [Example 124, dimethyl (2-(2-(1′-(5-(2-(dimethoxyphosphoryl)ethyl)-4,5,6,7-tetrahydrothiazolo[5,4-c]pyridine-2-carbonyl)-[4,4′-biindoline]-1-carbonyl)-6,7-dihydrothiazolo[5,4-c]pyridin-5(4H)-yl)ethyl)phosphonate], the IC50 is under 25 nM.

On to `O=C(c1nc2c(s1)CNCC2)N1CCc2c(-c3cccc4c3CCN4c3nccc4cc(CNCCO)cnc34)cccc21` [Example 100, (1′-(3-(((2-hydroxyethyl)amino)methyl)-1,7-naphthyridin-8-yl)-[4,4′-biindolin]-1-yl)(4,5,6,7-tetrahydrothiazolo[5,4-c]pyridin-2-yl)methanone], for which the IC50 was under 25 nM.

On to `Cc1c(NC(=O)c2ccc3c(n2)CCN(CCO)C3)cccc1-c1cccc(NC(=O)c2ccc3c(n2)CCN(CCO)C3)c1C` [Example 174, N,N′-(2,2′-dimethyl-[1,1′-biphenyl]-3,3′-diyl)bis(6-(2-hydroxyethyl)-5,6,7,8-tetrahydro-1,6-naphthyridine-2-carboxamide)], for which the IC50 is under 25 nM.

Staying with this test, now noted: recombinant human PD-L1 (19-238) His-tag / human PD-1 (25-167) Fc tag, numeric values.
On to `Cc1c(NC(=O)c2nc3c(s2)CNCC3)cccc1-c1cccc(NC(=O)c2nc3c(s2)CNCC3)c1C` [Example 1, N,N′-(2,2′-dimethyl-[1,1′-biphenyl]-3,3′-diyl)bis(4,5,6,7-tetrahydrothiazolo[5,4-c]pyridine-2-carboxamide)], for which the IC50 came out at 0.48 nM.
